# In ChEMBL document CHEMBL3507680, “University of Dundee, Gates Library screen for HepG2 cell viability”:
# Test: Human HepG2 cell viability assay in 384 well format
# Format: toxicity, cell-based
# Design: dose 125 nL, time 70.5 hour; concentration not given beside the values
# Conditions: HepG2 cells, read-out: Inhibition
row,Compound,cytotoxicity at 70.5 h [%]
1,Cc1cc(C)c(CCNC(=O)CN2CCCN(C(N)=O)CC2)c(C)c1,15.4
2,Cc1ccc(C)c(C(=O)CN2C(=O)c3ccccc3CS2(=O)=O)c1,-15
3,O=C(Nc1ccccc1)N1CCN(Cc2noc(C3CC3)n2)CC1,-7.64
4,Fc1ccccc1CN1CCC[C@H](Cn2nnc(-c3cccs3)n2)C1,-0.999
5,CS(=O)(=O)N1CCC(c2nnc3ccc(C(=O)N4CCCC4)cn23)C1 (configuration not stated),-5.09
6,Cc1nn(C)c(Cl)c1C1CCCN1C(=O)c1ccc2c(c1)OCO2 (configuration not stated),-16.9
7,CSc1cccc(CN2CCC(CCC(=O)NC3CC3)CC2)c1,-7.44
8,CN(C)[C@@H]1CCN(CC2CC2)[C@H]1Cc1cnn(C)c1,0.964
9,CCc1c(C)nc2n(c1=O)CC(C(=O)Nc1ncccc1C)CS2 (configuration not stated),-8.04
10,CN(CCc1ccccc1)Cc1nc(-c2cnccn2)no1,-8.36
11,CC(C)CC(=O)Nc1ccccc1Oc1ccsc1C(=O)O,-2.03
12,CC(C)CN1CC[C@H]2OCC[C@@H](C(=O)N3CCCO3)[C@@H]2C1,-18.2
13,CC(=O)N1CCN(C(=O)Nc2ccc(Cl)cc2)[C@H]2CS(=O)(=O)C[C@H]21,-2.86
14,c1cncc(-c2cccc(-c3ccn(CCN4CCCCC4)n3)c2)c1,13.9
15,COc1ccc(CC(=O)Nc2c(C)nc(N3CCOCC3)nc2C)cc1,1.49
16,CCc1cccc(OCC(=O)N2CCCC(n3cncn3)C2)c1 (configuration not stated),-9.33
17,O=C(NCc1c(F)cccc1Cl)c1cc(CN2CCCC(O)C2)on1 (configuration not stated),-13.8
18,Cc1nc(NCC2CCOCC2)cc(C2CCN2S(C)(=O)=O)n1 (configuration not stated),-1.73
19,CS(=O)(=O)CC(=O)N1C[C@H]2CCC[C@@]2(COCc2ccccn2)C1,-19.8
20,CN1C(=O)CCC12CCN(Cc1ccco1)CC2,-12.2
21,CC(=O)NCCCNC(=O)N(C)C(C)Cc1ccc(Cl)cc1 (configuration not stated),-8.06
22,O=C(c1ccc2nccn2c1)N1CCCC1c1noc(C2CC2)n1 (configuration not stated),-5.7
23,CCc1c(C)nc(SCc2ccccn2)[nH]c1=O,-5.97

row,Compound,cytotoxicity at 70.5 h [%]
1,c1cnc(N2CCC3(CCN(CC4CCCC4)CC3)C2)nc1,-1.07
2,CC(NC(=O)Cn1cc(C(N)=O)c(-c2ccccc2)n1)C1CC1 (configuration not stated),-10
3,CC(=O)Nc1ccc(OCc2noc(C(=O)N3CCCC3)n2)cc1,-14.2
4,CC(C)OCCC(=O)NS(=O)(=O)N1CCOc2ccccc21,-0.303
5,O=C(C1CC1)N1CCN2C[C@@H](CO)[C@H](c3ccccc3)[C@H]2C1,8.58
6,CCC(CC)(CNC(=O)OC(C)(C)C)NC(=O)C1CC1,16.7
7,CCSCC(C)NCc1cc(-c2ccco2)on1 (configuration not stated),-10.3
8,Cc1ccc(CNC(=O)N(Cc2ccccc2F)C2CC2)cn1,-1.38
9,COc1cccc(C(=O)N2CCN(CC(O)c3ccccc3)CC2)c1 (configuration not stated),-9.4
10,c1ccc(-c2nc(CN3CCn4c(nnc4C4CC4)C3)no2)cc1,-9.58
11,Cc1cnc2n(c1=O)CC(C(=O)Nc1ccon1)CS2 (configuration not stated),-13.7
12,CC(C)N1CCC2(CC1)CC(CC(N)=O)c1ccc(F)cc12 (configuration not stated),-5.38
13,Cc1ccccc1C(Nc1ncnc2c1CCNC2)c1ccccc1 (configuration not stated),-1.58
14,CSCCCN1C(=O)CC[C@H]2CN(Cc3ncc[nH]3)CC[C@H]21,-5.45
15,Cc1ccc(-c2nc(CN3CCOCS3(=O)=O)c(C)o2)cc1,-0.637
16,Cc1ccccc1CN(Cc1ccccn1)C(=O)CN(C)C(C)C,2.63
17,CCCC(NC(=O)c1cc(C2CC2)[nH]n1)c1nnc2ccccn12 (configuration not stated),-12.1
18,CCN(CC)C(=O)C1CCC2(CCNCC2)CO1 (configuration not stated),-14.2
19,CN(C)C(=O)CCN1CC(c2ccccc2)(c2ccccc2)CCC1=O,4.06
20,O=C1CC2(CCN(Cc3cccnc3)C2)CN1c1cccc(F)c1 (configuration not stated),-16.5
21,Cc1ccc(CN2CCN(Cc3cc(C)n[nH]3)CC2CCO)cc1 (configuration not stated),12.1
22,N#CC(NC(=O)CCC(=O)NC1CCCC1)c1ccc(F)cc1F (configuration not stated),-11.2
23,O=C(c1ccccn1)N1CCC2(CC1)COC(COc1cccnc1)C2 (configuration not stated),-7.52

row,Compound,cytotoxicity at 70.5 h [%]
1,CSc1cc2c(cc1NC(=O)NCC(=O)N(C)C)OCCO2,0.952
2,CC(C)CN1CC[C@@H]2[C@@H]1CCN2S(=O)(=O)c1cccs1,-18
3,CC(C)CCN1C2(CCN(c3ncccn3)C2)c2ccccc2S1(=O)=O (configuration not stated),-11.6
4,COCCCN1CCN(CCOC)C(C)C1 (configuration not stated),0.867
5,CCCOc1ccc(Cl)cc1C(=O)N1CCC(n2cncn2)CC1,17.2
6,Cc1ccc(C(O)CNCCn2cccn2)cc1C (configuration not stated),-3.19
7,Cc1cnn(C2CCCN(C(=O)Cc3c(C)nn(C)c3C)C2)c1 (configuration not stated),0.294
8,CC(=O)N1CCc2c(nc(N(C)C)nc2N(C)CCCC2CCCO2)C1 (configuration not stated),10.7
9,Cc1cccc(N2CCC(N3CCCC4(CNC(=O)O4)C3)CC2)c1C (configuration not stated),-7.33
10,Cc1cc2cc(C(=O)N3C[C@H](O)[C@]4(CCCO4)C3)ccc2o1,-2.18
11,N#Cc1ccc(CNC(=O)C2=NN(c3ccccc3)C(=O)CN2)cc1,-7.68
12,O=C1CCCN1CCN1CC[C@@]2(O)CCN(c3ncccn3)C[C@H]2C1,15.5
13,c1ccc2nc(NCC3(N4CCOCC4)CCSC3)cnc2c1 (configuration not stated),28.5
14,COc1ccc(CN(C(=O)C(C)SC)c2cnn(C)c2)c(OC)c1 (configuration not stated),1.09
15,CCCn1cc(NC(=O)c2ccc(S(=O)(=O)CC)cc2)ccc1=O,22.4
16,CCOc1ccccc1CN(CC)Cc1ccc(S(C)(=O)=O)cc1,-5.03
17,CN(C(=O)c1ccc(Cl)c(S(C)(=O)=O)c1)c1ccccc1,0.806
18,COC(=O)N1CCN(C(=O)c2ccc(C)c(N3CCNC3=O)c2)CC1,14
19,CS(=O)(=O)N[C@H]1CN(CCOCc2ccccc2)C[C@@H]1C1CC1,-2.16
20,COc1cccnc1NC(=O)COc1c(C)cccc1C,18.3
21,C=C(C)COc1ccc(C(CC(=O)OC)c2oc(C)cc(=O)c2O)cc1 (configuration not stated),-0.596
22,O=C(c1ccccc1)N1CC2(CCNC2)OCc2ccccc21 (configuration not stated),-9.98
23,O=C(c1cccnc1)N1CCOC(Cc2ccccc2Cl)C1 (configuration not stated),0.0235

row,Compound,cytotoxicity at 70.5 h [%]
1,Cc1cccc(NS(=O)(=O)c2cnn(C)c2)c1C#N,-12.8
2,Cc1cccc(NC(=O)[C@@H]2CCCN2Cc2cnc3ccccn23)n1,1.07
3,O=C(Cc1cccnc1)N1CCCC(n2cncn2)C1 (configuration not stated),-1.4
4,Cc1ncnc2c1CCN(C(=O)c1cccn1C)CC2,-5.38
5,CCC(NC(=O)C(C)(C)C)c1ccccc1C (configuration not stated),25.3
6,CC(C)(C)c1ccc(CN2C[C@H]3C[C@H](O)C[C@H]3C2)c(OCC(N)=O)c1,-2.7
7,COc1ccc(-c2nnc(SC(C)C(=O)NC3CC3)[nH]2)c(OC)c1 (configuration not stated),30.9
8,O=C(Nc1cc(C2CCOCC2)[nH]n1)c1cscn1,-7.61
9,CSCCC(=O)N1CCc2c(ncnc2N2CCOCC2)C1,-2.83
10,CCn1ccnc1CN(C)C(C(=O)O)c1ccc(C(C)(C)C#N)cc1 (configuration not stated),-4.97
11,COc1ccc2cc(NC(=O)CCCNc3ncccn3)cnc2c1,-30.3
12,COc1ccc(CC(C)Nc2cccc(F)c2)cc1 (configuration not stated),-1.11
13,CCc1c(C(=O)NCC(=O)OCC2CC2)cnn1-c1ccc(C)cc1,27.6
14,Cc1c(S(=O)(=O)N2CCCCC2c2nnc(-c3cccs3)o2)cnn1C (configuration not stated),-2.57
15,C[C@@H](NCc1cccc(Cl)c1)c1onc(-c2ccccc2)c1C(=O)O,-3.56
16,COCCCN(CCOC)C(=O)Nc1ccccc1-n1cccn1,2.41
17,Cc1cc(Br)c(O)c(C(=O)N2CCC(CN3CCCCCC3)CC2)c1,-5.82
18,CC(C)N(Cc1cccc(Cl)c1)Cc1nc2c(cnn2C)c(=O)[nH]1,6.79
19,Cc1cccc(N2Cc3nc(=O)[nH]n3C2=O)c1,-14.3
20,Cc1cnn(C2CN(CCOc3ccc(C#N)cc3)C2)c1,-5.99
21,CCc1ncc2c(n1)CN(C(=O)CNC(=O)c1ccccc1)C2,25.5
22,CCOC(=O)CC(C)Nc1nc(C2CCCC2)nc2c1cnn2C (configuration not stated),-12.8
23,COC1CN(C(=O)CC(C)C)CCC(=O)N(C)c2ccccc21 (configuration not stated),-7.01

row,Compound,cytotoxicity at 70.5 h [%]
1,Cc1nc(COCc2cnc3n2CCN(C2CCC2)C3C)cs1 (configuration not stated),-12.4
2,CCN(CC)C(=O)CN1CCCC(c2nc(C)c3c(n2)N(C)CCC3)C1 (configuration not stated),0.707
3,Cc1cc(CSc2ccccn2)on1,-3.89
4,Cc1noc(C)c1C(=O)NCc1ccc(N2CCC(C)CC2)nc1,1.58
5,Cc1noc(C)c1C(=O)NCC(O)c1ccc(F)cc1F (configuration not stated),27.1
6,CC(NC(=O)NCc1ccc(Cl)s1)c1ccccn1 (configuration not stated),-20
7,Cc1cccc(CN2C[C@@H]3CN(C(=O)c4ccnnc4)C[C@@H]3C2=O)c1,-2.38
8,Cc1ncccc1CNCC1CCCN1c1cccnn1 (configuration not stated),-3.29
9,CC(C)CN1CCC2(CC1)C(=O)Nc1ccc(C(=O)NC(C)C)cc12,-0.986
10,CCn1cc(-c2cc(C(F)F)n3nc(CC(=O)O)nc3n2)cn1,0.375
11,CCCn1cc(Cl)c(C(=O)N2C[C@H]3C[C@H](OC)C[C@H]3C2)n1,3.23
12,CN1CCN(Cc2cscn2)CC(C(=O)N(C)C)C1 (configuration not stated),15.4
13,CCN1C(=O)[C@H]2CN(CC(C)C)C[C@H]2C12CCN(C(=O)NC(C)C)CC2,-1.18
14,CCc1nc2ccccc2c(=O)n1CC1(O)CCN(S(C)(=O)=O)CC1,-20.2
15,Cn1cnnc1CCC(=O)N1CCCC(OCc2cccnc2)C1 (configuration not stated),-0.989
16,CC(=O)N1CCC2(CCN(C(=O)c3ccc(F)c(C(F)(F)F)c3)CC2)C1,-6.93
17,OCC1(Cc2cccc(Cl)c2)CCCN(c2ncccn2)C1 (configuration not stated),28.5
18,CC(C)c1ccc(-n2ncc(C(=O)N(C)C3CCN(C)CC3)c2N)cc1,-2.55
19,N#CCc1ccc(OCC(=O)NS(=O)(=O)c2ccc(Br)s2)cc1,4.36
20,O=C(NCCCn1ccccc1=O)c1cnc(-c2ccsc2)s1,-11.3
